Key:
[1] = target: T1, Recombinant JAK2 (Homo sapiens, UniProt O60674); assay: JAK biochemical assay (LANCE Ultra TR-FRET), JAK2; details: recombinant JAK2, TR-FRET; read-out: Biochemical Assay (μM) JAK2
T1 construct: purchased Carna Biosciences
Procedure, shortened: (§1)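 % inhibition relative to vehicle was derived from TR-FRET signal proportional to ULight-substrate phosphorylation. Reactions used recombinant kinase in HEPES pH 7.5 buffer containing EGTA, MgCl2, DTT and Tween-20.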

[2] = tested on: STAT3 phosphorylation by IL-6 in TF-1 cells; assay: JAK cellular assay: STAT3 phosphorylation by IL-6 in TF-1 cells (HTRF); format: cell-based; details: Homo sapiens, TF-1, TF-1 cells, IL-6 30 ng/ml, pSTAT3 HTRF; read-out: Cell Based Assay (μM) TF-1/IL-6/pSTAT3
Procedure, shortened: (§2)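 Phospho-STAT3 (IL-6, 30 ng/ml) and phospho-STAT5 (GMCSF, 5 ng/ml) read by HTRF in lysates after 20 min cytokine exposure, minus unstimulated-cell background. Cells were serum-starved overnight, plated at 120,000/well, given compound 30 min at 37 °C beforehand; DMSO 0.2% final.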

[3] = target: T2, Recombinant JAK1 (Homo sapiens, UniProt P23458); assay: JAK biochemical assay (LANCE Ultra TR-FRET), JAK1; details: recombinant JAK1, TR-FRET; read-out: Biochemical Assay (μM) JAK1
T2 construct: purchased Carna Biosciences
Procedure, shortened: as §1

[4] = tested on: STAT5 phosphorylation by IL-2 in HT-2 cells; assay: STAT5 phosphorylation by IL-2 in HT-2 cells (HTRF); format: cell-based; details: HT2, HT-2 cells, IL-2 50 U/ml, pSTAT5 HTRF; read-out: Cell Based Assay (μM) HT-2/IL-2/pSTAT5
Protocol: HT-2 cells were starved […] in RPMI phenol red with 10% fetal bovine serum for 4 hours in CO2 incubator maintained at 37° c. Compounds were diluted in DMSO and added to 96 well plate containing a final density of 1,20,000 cells per well. Cells and compounds are incubated for 30 minutes in CO2 incubator maintained at 37° C. and final DMSO concentration in cell based assay was 0.2%. Human recombinant cytokine, IL-2 (50 U/ml) was added to the plate containing cells and compound and incubated for 20 minutes with gentle tapping/shaking at every 5 minutes once. Compound mediated effects on STAT5 phosphorylation was measured in the lysates prepared by using CISBIO pSTAT5 detection kit by HTRF method. Background signal obtained from cells which were not activated with cytokines, was subtracted from vehicle controls and compound treated wells.

[5] = target: T3, Recombinant JAK3 (Homo sapiens, UniProt P52333); assay: JAK biochemical assay (LANCE Ultra TR-FRET), JAK3; details: recombinant JAK3, TR-FRET; read-out: Biochemical Assay (μM) JAK3
T3 construct: purchased Carna Biosciences
T3 sequence (P52333 1-1124): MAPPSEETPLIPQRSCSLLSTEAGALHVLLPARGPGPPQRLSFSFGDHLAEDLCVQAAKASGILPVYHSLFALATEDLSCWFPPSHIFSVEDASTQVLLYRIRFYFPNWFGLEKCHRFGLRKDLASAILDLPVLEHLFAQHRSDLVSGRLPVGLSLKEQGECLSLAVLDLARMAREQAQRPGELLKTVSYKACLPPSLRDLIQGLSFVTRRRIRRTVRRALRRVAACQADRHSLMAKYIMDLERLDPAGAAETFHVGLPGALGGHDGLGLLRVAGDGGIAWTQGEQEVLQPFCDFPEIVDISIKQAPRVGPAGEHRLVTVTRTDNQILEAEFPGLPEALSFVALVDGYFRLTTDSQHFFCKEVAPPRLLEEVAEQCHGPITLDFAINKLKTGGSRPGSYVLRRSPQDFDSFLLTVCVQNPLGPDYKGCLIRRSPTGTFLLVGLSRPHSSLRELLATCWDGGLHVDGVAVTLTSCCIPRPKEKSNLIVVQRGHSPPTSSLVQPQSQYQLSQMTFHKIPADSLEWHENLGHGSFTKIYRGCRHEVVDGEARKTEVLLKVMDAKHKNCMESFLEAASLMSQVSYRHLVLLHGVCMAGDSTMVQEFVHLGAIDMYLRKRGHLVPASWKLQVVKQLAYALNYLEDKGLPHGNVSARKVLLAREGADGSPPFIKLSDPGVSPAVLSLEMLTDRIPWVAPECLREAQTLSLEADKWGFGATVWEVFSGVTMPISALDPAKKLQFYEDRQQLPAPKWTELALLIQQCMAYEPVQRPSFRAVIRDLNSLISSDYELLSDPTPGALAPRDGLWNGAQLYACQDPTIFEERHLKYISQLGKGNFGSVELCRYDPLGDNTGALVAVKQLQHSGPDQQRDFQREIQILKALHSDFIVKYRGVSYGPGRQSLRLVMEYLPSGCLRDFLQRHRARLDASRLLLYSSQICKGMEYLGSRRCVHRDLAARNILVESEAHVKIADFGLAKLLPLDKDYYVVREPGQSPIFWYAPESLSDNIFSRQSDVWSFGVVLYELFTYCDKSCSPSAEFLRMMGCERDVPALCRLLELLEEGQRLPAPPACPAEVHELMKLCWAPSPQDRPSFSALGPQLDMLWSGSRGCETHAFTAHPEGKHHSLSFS
Procedure, shortened: as §1

[6] = target: T4, Recombinant TYK2 (Homo sapiens, UniProt P29597); assay: JAK biochemical assay (LANCE Ultra TR-FRET), TYK2; details: recombinant TYK2, TR-FRET; read-out: Biochemical Assay (μM) TYK2
T4 construct: purchased Carna Biosciences
Procedure, shortened: as §1

[7] = tested on: STAT5 phosphorylation by GMCSF in TF-1 cells; assay: JAK cellular assay: STAT5 phosphorylation by GMCSF in TF-1 cells (HTRF); format: cell-based; details: Homo sapiens; TF-1 cells, GMCSF 5 ng/ml, pSTAT5 HTRF; read-out: Cell Based Assay (μM) TF-1/GMCSF/pSTAT5
Procedure, shortened: as §2

T1 sequence (O60674 whole entry): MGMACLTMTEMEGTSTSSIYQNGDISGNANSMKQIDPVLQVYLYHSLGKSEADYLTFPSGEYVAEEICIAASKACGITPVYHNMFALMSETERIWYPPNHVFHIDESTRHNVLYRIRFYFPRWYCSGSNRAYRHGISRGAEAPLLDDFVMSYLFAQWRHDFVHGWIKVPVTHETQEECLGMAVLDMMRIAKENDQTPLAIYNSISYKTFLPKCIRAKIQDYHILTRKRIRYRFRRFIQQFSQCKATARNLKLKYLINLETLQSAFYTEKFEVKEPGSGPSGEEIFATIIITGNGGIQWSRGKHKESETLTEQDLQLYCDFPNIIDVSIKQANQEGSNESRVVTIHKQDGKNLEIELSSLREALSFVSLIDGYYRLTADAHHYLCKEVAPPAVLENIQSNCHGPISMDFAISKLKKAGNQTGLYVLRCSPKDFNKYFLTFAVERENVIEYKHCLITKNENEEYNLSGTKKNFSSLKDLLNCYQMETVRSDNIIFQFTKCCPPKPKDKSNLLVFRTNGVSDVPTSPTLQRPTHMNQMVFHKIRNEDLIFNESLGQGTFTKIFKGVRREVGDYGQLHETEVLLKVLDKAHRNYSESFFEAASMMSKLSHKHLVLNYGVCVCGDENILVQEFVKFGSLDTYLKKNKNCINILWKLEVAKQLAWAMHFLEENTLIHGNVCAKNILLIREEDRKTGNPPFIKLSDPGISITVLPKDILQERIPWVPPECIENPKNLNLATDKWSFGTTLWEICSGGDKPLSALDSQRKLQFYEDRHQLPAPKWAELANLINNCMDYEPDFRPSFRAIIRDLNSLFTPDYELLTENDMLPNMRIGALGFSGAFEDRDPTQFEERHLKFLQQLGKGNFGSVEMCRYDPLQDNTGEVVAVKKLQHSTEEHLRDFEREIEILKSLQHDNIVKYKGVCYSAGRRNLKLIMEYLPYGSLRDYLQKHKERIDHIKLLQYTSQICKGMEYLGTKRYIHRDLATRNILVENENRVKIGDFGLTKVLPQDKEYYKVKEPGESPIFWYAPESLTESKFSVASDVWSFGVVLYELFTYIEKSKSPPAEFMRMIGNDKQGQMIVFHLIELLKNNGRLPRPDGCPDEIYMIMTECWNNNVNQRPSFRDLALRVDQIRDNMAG
T2 sequence (P23458 whole entry): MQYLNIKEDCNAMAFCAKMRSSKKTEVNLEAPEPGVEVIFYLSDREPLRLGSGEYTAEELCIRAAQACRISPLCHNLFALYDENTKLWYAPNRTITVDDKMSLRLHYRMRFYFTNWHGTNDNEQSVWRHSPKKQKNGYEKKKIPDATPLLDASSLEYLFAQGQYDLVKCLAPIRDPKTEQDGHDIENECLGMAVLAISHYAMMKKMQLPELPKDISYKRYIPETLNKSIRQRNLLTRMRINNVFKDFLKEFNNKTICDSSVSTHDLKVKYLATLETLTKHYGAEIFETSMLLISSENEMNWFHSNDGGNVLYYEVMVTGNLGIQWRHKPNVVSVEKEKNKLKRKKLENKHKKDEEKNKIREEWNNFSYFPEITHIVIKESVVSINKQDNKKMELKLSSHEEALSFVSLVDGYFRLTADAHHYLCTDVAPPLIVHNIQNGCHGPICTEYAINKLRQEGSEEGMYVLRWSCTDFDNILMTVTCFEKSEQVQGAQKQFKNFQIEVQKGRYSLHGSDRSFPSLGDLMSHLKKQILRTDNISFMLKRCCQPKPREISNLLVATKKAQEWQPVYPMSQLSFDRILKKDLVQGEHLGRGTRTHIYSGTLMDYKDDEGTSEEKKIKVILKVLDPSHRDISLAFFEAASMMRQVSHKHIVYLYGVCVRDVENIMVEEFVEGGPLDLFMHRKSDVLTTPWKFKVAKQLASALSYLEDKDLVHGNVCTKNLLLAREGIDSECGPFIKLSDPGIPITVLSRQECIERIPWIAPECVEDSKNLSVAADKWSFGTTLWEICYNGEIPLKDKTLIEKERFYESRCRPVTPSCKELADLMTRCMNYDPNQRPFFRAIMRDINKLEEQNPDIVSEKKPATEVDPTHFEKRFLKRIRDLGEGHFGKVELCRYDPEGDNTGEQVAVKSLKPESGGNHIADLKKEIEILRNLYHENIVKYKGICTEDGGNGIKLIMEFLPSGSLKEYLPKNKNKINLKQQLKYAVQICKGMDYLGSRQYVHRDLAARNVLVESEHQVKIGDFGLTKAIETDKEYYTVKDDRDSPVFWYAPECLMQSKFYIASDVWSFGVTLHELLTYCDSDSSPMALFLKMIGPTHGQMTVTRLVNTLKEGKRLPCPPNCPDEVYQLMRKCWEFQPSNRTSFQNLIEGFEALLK
T4 sequence (P29597 whole entry): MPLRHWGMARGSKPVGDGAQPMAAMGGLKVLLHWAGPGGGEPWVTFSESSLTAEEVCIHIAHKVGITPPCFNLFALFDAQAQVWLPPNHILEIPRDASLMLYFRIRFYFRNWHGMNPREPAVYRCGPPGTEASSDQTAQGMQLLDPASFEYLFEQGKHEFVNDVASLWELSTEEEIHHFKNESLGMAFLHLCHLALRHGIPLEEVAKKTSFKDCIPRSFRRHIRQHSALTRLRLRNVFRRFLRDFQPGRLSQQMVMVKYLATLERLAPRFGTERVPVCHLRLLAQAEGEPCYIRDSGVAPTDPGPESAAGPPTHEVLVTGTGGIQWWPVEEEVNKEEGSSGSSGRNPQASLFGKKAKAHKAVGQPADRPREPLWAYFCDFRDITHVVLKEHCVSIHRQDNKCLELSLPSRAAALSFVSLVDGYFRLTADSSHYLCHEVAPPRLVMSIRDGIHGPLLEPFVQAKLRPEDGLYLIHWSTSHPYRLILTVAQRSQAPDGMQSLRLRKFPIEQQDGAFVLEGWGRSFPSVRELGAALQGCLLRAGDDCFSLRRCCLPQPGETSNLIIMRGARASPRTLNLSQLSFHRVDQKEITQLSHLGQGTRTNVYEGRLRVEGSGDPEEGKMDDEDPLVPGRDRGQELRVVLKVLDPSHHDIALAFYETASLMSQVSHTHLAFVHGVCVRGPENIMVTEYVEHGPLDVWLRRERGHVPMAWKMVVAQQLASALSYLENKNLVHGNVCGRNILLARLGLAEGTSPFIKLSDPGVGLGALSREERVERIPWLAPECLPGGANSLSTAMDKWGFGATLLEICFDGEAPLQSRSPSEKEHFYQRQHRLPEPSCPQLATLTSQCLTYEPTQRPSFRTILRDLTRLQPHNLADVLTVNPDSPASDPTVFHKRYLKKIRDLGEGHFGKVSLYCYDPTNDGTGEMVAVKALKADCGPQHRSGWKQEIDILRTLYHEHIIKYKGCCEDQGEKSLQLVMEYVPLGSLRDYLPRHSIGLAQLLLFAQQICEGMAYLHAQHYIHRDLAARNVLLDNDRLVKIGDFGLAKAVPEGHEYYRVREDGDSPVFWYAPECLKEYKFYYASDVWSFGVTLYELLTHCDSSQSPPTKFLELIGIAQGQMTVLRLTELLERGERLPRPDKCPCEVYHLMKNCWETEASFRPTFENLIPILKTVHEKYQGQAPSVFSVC

Row | SMILES | IC50 [1] [µM] | IC50 [2] [µM] | IC50 [3] [µM] | IC50 [4] [µM] | IC50 [5] [µM] | IC50 [6] [µM] | IC50 [7] [µM]
1 | N#CC1CN(C(=O)CCC(c2ccc(-n3cc(-c4ccnc5[nH]cnc45)cn3)nc2)C(F)(F)F)C1 (stereo not shown) [Example 1250, 1-(4-(6-(4-(3H-imidazo[4,5-b]pyridin-7-yl)-1H-pyrazol-1-yl)pyridin-3-yl)-5,5,5-trifluoropentanoyl)azetidine-3-carbonitrile] | < 0.1 | > 1 | < 0.1 | > 1 | < 0.1 | > 1 | 
2 | CC(C)C(=O)NCCC(c1ccc(-n2cc(-c3ccnc4[nH]cnc34)cn2)nc1)C(F)(F)F (stereo not shown) [Example 1247, N-(3-(6-(4-(3H-imidazo[4,5-b]pyridin-7-yl)-1H-pyrazol-1-yl)pyridin-3-yl)-4,4,4-trifluorobutyl)isobutyramide] | 0.06 | > 1 |  | > 1 | 0.023 | 0.19 | 
3 | CC(=O)N1CC(C(O)(c2ccc(-n3cc(-c4ccnc5[nH]cnc45)cn3)nc2)C(F)(F)F)C1 (stereo not shown) [Example 1236, 1-(3-(1-(6-(4-(3H-imidazo[4,5-b]pyridin-7-yl)-1H-pyrazol-1-yl)pyridin-3-yl)-2,2,2-trifluoro-1-hydroxyethyl)azetidin-1-yl)ethanone] | > 0.03 | > 1 |  | > 0.75 | > 0.03 | > 0.1 | 
4 | CC(c1ccc(-n2cc(-c3ccnc4[nH]cnc34)cn2)nc1)S(C)(=O)=O (stereo not shown) [Example 1158, 7-(1-(5-(1-(methylsulfonyl)ethyl)pyridin-2-yl)-1H-pyrazol-4-yl)-3H-imidazo[4,5-b]pyridine] | > 0.1 | > 1 | < 0.1 |  | > 0.1 | > 1 | > 1
5 | FC(F)(F)C(Cl)c1ccc(-n2cc(-c3ccnc4[nH]cnc34)cn2)nc1 (stereo not shown) [Example 1120, 7-(1-(5-(1-chloro-2,2,2-trifluoroethyl)pyridin-2-yl)-1H-pyrazol-4-yl)-3H-imidazo[4,5-b]pyridine] | > 0.1 | > 1 | > 0.05 |  | > 0.1 | > 1 | > 10
6 | CC(C)N1CCC(C(O)(c2ccc(-n3cc(-c4ccnc5[nH]cnc45)cn3)nc2)C(F)(F)F)CC1 (stereo not shown) [Example 1240, 1-(6-(4-(3H-imidazo[4,5-b]pyridin-7-yl)-1H-pyrazol-1-yl)pyridin-3-yl)-2,2,2-trifluoro-1-(1-isopropylpiperidin-4-yl)ethanol] | > 0.03 | > 0.5 | > 0.01 |  | > 0.03 | > 1 | > 1
7 | N#CC1CCN(C(=O)n2cc(-c3ccnc4[nH]cnc34)cn2)C1 (stereo not shown) [Example 1177, 1-(4-(3H-imidazo[4,5-b]pyridin-7-yl)-1H-pyrazole-1-carbonyl)pyrrolidine-3-carbonitrile] | < 0.5 | > 10 | > 1 |  | > 1 | > 0.5 | > 10
8 | OC(c1cccc(-n2cc(-c3ccnc4[nH]cnc34)cn2)n1)C(F)(F)F (stereo not shown) [Example 1170, 1-(6-(4-(3H-imidazo[4,5-b]pyridin-7-yl)-1H-pyrazol-1-yl)pyridin-2-yl)-2,2,2-trifluoroethanol] | > 0.1 | > 10 | > 0.1 |  | > 0.05 | > 1 | > 10
9 | CC1CN(C(=O)n2cc(-c3ccnc4[nH]cnc34)cn2)CC1C#N (stereo not shown) [Example 1074, 1-(4-(3H-imidazo[4,5-b]pyridin-7-yl)-1H-pyrazole-1-carbonyl)-4-methylpyrrolidine-3-carbonitrile] | > 1 | > 10 | > 10 |  | > 1 | > 1 | > 10
10 | OC(c1ccc(-n2cc(-c3ccnc4[nH]cnc34)cn2)cn1)C(F)(F)F (stereo not shown) [Example 1173, 1-(5-(4-(3H-imidazo[4,5-b]pyridin-7-yl)-1H-pyrazol-1-yl)pyridin-2-yl)-2,2,2-trifluoroethanol] | < 0.1 | 10 | < 0.1 |  | < 0.1 | > 1 | > 10
11 | O=S1(=O)CCN(Cc2ccc(-n3cc(-c4ccnc5[nH]cnc45)cn3)nc2)CC1 [Example 1086, 4-((6-(4-(3H-imidazo[4,5-b]pyridin-7-yl)-1H-pyrazol-1-yl)pyridin-3-yl)methyl)thiomorpholine 1,1-dioxide] | > 0.5 | > 10 | < 0.5 |  | > 0.5 | > 10 | > 10
12 | FC(F)(F)C(OCCNC1CC1)c1ccc(-n2cc(-c3ccnc4[nH]cnc34)cn2)nc1 (stereo not shown) [Example 1197, N-(2-(1-(6-(4-(3H-imidazo[4,5-b]pyridin-7-yl)-1H-pyrazol-1-yl)pyridin-3-yl)-2,2,2-trifluoroethoxy)ethyl)cyclopropanamine] | < 0.1 | > 0.3 | < 0.1 |  | < 0.1 | > 0.5 | > 1
13 | N#C[C@H](NC(=O)n1cc(-c2ccnc3[nH]c(=O)[nH]c23)cn1)C1CC1 [Example 1054, N-((R)-cyano(cyclopropyl)methyl)-4-(2,3-dihydro-2-oxo-1H-imidazo[4,5-b]pyridin-7-yl)-1H-pyrazole-1-carboxamide] | > 0.5 | > 1 | > 10 |  | > 1 | > 1 | 10
14 | O=C(NCC(F)(F)F)C(c1ccc(-n2cc(-c3ccnc4[nH]cnc34)cn2)nc1)C1CC1 (stereo not shown) [Example 1167, 2-(6-(4-(3H-imidazo[4,5-b]pyridin-7-yl)-1H-pyrazol-1-yl)pyridin-3-yl)-2-cyclopropyl-N-(2,2,2-trifluoroethyl)acetamide] | 0.3 | 10 | 0.096 |  | 0.173 | > 10 | > 10
15 | FC(F)(F)C(CCN1CCOCC1)c1ccc(-n2cc(-c3ccnc4[nH]cnc34)cn2)nc1 (stereo not shown) [Example 1201, 7-(1-(5-(1,1,1-trifluoro-4-morpholinobutan-2-yl)pyridin-2-yl)-1H-pyrazol-4-yl)-3H-imidazo[4,5-b]pyridine] | > 0.5 | > 0.5 | < 0.1 |  | < 0.1 | > 1 | > 1
16 | OC(Cc1ccc(-n2cc(-c3ccnc4[nH]cnc34)cn2)nc1)C(F)(F)F (stereo not shown) [Example 1183, 3-(6-(4-(3H-imidazo[4,5-b]pyridin-7-yl)-1H-pyrazol-1-yl)pyridin-3-yl)-1,1,1-trifluoropropan-2-ol] | > 0.5 | 1 | > 0.1 |  | > 0.1 | > 1 | > 1

Source: patent US12516056B2, “Compounds for inhibition of janus kinase 1” (MANKIND PHARMA LTD., priority 2019, dated 2026)
